Some test systems named below: HOP-92 NSCLC; SF-295 CNS; RXF 393 renal; MDA-MB-231 breast; NCI-H23 lung; KM12 colon; SN12C renal; U251 CNS; SF-268 CNS; BT-549 breast.
Holding throughout (experiment): NCI anticancer screen, dose series, 48 h

Molecules are shown by their SMILES. “And” between values parts separate entries of the source, which are not always exact repeats. Identical values can stand only once.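 Method: 48-hour compound exposure of cells in 96-well plates, five concentrations, linear interpolation of endpoints. GI50 = concentration required for 50% inhibition of growth. TGI: concentration producing complete growth inhibition.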

For `O=C1Nc2ccc(I)cc2/C1=C/c1cc(Br)c(O)c(Br)c1`, the GI50 with HOP-92 NSCLC is 15.6 µM; with SF-295 CNS it was > 15.9 µM and 17.2 µM; with RXF 393 renal, > 16.6 µM and 12 µM; in the assay with MDA-MB-231 breast it was > 20.4 µM and 16.1 µM; in the assay on NCI-H23 lung it was > 17 µM and 18.1 µM; with KM12 colon, > 15.9 µM and 12 µM. In addition, the GI50 with SN12C renal is > 25 µM and 25.9 µM; in the assay with U251 CNS it was > 24.1 µM and 15.1 µM; in the assay on SF-268 CNS it was > 21.9 µM and 18.2 µM; in the assay on BT-549 breast, > 17.9 µM and 8.07 µM. In addition, the TGI is 54.7 µM in the assay on HOP-92 NSCLC; greater than 100 µM in the assay with SF-295 CNS; > 25 µM and 28.3 µM with RXF 393 renal; > 25 µM and 44.2 µM in the assay on MDA-MB-231 breast; > 25 µM and 55 µM with NCI-H23 lung; > 25 µM and 28.7 µM in the assay on KM12 colon. Besides, the TGI was greater than 80.8 µM in the assay with SN12C renal; > 25 µM and 36.3 µM in the assay on U251 CNS; > 25 µM and 68.8 µM in the assay on SF-268 CNS; > 25 µM and 32.7 µM with BT-549 breast.

Turning to `Nc1c2ccccc2nc2ccccc12`, the GI50 in the assay with HOP-92 NSCLC is 1.63 µM and 3.71 µM; with SF-295 CNS, 1.61 µM and 3.08 µM; with RXF 393 renal, 1.1 µM and 2.31 µM; in the assay on MDA-MB-231 breast, 1.99 µM and 2.51 µM; with NCI-H23 lung it was 1.8 µM and 3.18 µM; in the assay on KM12 colon it was 2.04 µM and 3.27 µM. The GI50 with SN12C renal is 1.5 µM and 2.61 µM; with U251 CNS, 2.16 µM and 3.34 µM; in the assay with SF-268 CNS it was 1.63 µM and 3.47 µM; in the assay with BT-549 breast it was 4.04 µM and 5.12 µM. For the same molecule, the TGI is 4.82 µM and 23.2 µM with HOP-92 NSCLC; 9.52 µM and 17.5 µM in the assay with SF-295 CNS; 2.77 µM and 6.57 µM in the assay on RXF 393 renal; 6.09 µM and 8.37 µM with MDA-MB-231 breast; 5.49 µM and 15.4 µM in the assay on NCI-H23 lung; 7.58 µM and 14 µM in the assay on KM12 colon. Besides, the TGI with SN12C renal was 12.4 µM and 10.5 µM; in the assay on U251 CNS, 8 µM and 13.1 µM; in the assay on SF-268 CNS, 4.45 µM and 19.7 µM; in the assay with BT-549 breast, 15.4 µM and 26.2 µM.

Take `Nc1ncnc2c1ncn2C1SC(CO)C(O)C1O` (stereo not given): the GI50 in the assay on HOP-92 NSCLC is 13.6 µM; in the assay on SF-295 CNS, 20.1 µM; with RXF 393 renal it was 80.6 µM; in the assay on MDA-MB-231 breast, 10.9 µM; with NCI-H23 lung it was 35.1 µM; in the assay on KM12 colon, 23 µM. The GI50 in the assay with SN12C renal is 19.3 µM; in the assay on U251 CNS, 27 µM; in the assay with SF-268 CNS, 27.1 µM; in the assay on BT-549 breast, 12.7 µM. Further, the TGI in the assay on HOP-92 NSCLC was 52.4 µM; with SF-295 CNS, 52.6 µM; in the assay with RXF 393 renal, greater than 100 µM; in the assay with MDA-MB-231 breast it was 34.8 µM; in the assay with NCI-H23 lung, greater than 100 µM; in the assay with KM12 colon, greater than 100 µM. Also, the TGI in the assay with SN12C renal was 62.3 µM; in the assay on U251 CNS, greater than 100 µM; with SF-268 CNS, 96.6 µM; with BT-549 breast, 43.2 µM.

Turning to `COc1cccc(-c2cc(-c3ccc(Nc4nc(Nc5ccc(Cl)cc5)nc(Nc5ccc(Cl)cc5)n4)cc3)nc(N)c2C#N)c1`, the GI50 with HOP-92 NSCLC is 1.1 µM; in the assay on SF-295 CNS it was 2.78 µM; in the assay on RXF 393 renal it was 1.44 µM; with MDA-MB-231 breast it was 1.74 µM; in the assay with NCI-H23 lung it was 3.59 µM; in the assay with KM12 colon, 2.35 µM. Further, the GI50 in the assay with SN12C renal is 4.01 µM; in the assay with U251 CNS, 3.76 µM; in the assay with SF-268 CNS, 2.94 µM; with BT-549 breast, 2.44 µM. In addition, the TGI with HOP-92 NSCLC was 3.41 µM; with SF-295 CNS, 10.2 µM; with RXF 393 renal, 3.68 µM; in the assay on MDA-MB-231 breast, 5.43 µM; with NCI-H23 lung, greater than 54 µM; in the assay with KM12 colon, 11.1 µM. Besides, the TGI was greater than 100 µM with SN12C renal, greater than 37.5 µM in the assay on U251 CNS, 10.2 µM in the assay on SF-268 CNS and 10.9 µM in the assay on BT-549 breast.

These data come from PubChem BioAssay (NCI).
